Assay results published in US8455469B2, “Use of norgestimate as a selective inhibitor of TRPC3, TRPC6 and TRPC7 ion channels” (Sanofi, priority 2007, dated 2013).

Tests used:
TRPC6 = target: T1, TRPC6 (Homo sapiens, UniProt Q9Y210); assay: Whole-cell patch clamp, AlF4- activated TRPC6 HEK293 cells; format: cell-based; details: 10 μM
T1 construct: expressed in transfected cells; host or cells: HEK293 (inducible expression)
T1 sequence (Q9Y210 1-931): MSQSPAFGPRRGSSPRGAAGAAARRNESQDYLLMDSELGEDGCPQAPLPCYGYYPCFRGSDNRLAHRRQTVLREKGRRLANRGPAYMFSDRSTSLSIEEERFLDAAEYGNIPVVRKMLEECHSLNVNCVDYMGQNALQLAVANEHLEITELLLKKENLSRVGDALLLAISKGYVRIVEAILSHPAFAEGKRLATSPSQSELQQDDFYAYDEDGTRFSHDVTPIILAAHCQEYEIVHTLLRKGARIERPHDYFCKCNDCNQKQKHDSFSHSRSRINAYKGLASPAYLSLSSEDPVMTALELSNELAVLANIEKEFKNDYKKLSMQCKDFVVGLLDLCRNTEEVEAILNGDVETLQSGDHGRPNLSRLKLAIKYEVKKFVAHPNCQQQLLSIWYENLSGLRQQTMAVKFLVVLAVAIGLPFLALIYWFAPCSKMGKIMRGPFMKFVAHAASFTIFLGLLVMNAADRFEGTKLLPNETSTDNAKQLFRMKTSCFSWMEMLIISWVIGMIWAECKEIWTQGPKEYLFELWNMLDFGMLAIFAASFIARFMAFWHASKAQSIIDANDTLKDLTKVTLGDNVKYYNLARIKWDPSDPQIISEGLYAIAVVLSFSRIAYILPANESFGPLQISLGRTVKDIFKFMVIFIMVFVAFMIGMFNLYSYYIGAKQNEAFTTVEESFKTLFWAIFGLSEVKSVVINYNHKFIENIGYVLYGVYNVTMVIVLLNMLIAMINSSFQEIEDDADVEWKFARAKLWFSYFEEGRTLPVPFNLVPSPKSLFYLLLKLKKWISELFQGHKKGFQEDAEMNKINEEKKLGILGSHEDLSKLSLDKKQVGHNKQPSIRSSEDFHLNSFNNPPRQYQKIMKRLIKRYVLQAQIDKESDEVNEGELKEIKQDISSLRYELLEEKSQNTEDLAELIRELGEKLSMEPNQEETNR
Source text: Inhibition of TRPC6- and TRPC5-mediated Ca^2+ -influx by norgestimate monitored in fluorometric experiments with cell populations was validated and compared with whole-cell patch clamp recordings of single cells. Channels were indirectly excited with the same stimulus for better comparability of the norgestimate effect. Aluminium tetrafluoride (AIF^4−) applied intracellularly via the patch pipette activates G-proteins by mimicking GTP (Sternweis & Gilman, 1982; Bigay et al., 1987). Subsequently TRPC channels are stimulated and mediate non-specific cationic currents (FIG. 3 A, B) When 10 μM norgestimate were applied to activated TRPC6 channels, 89.9 ±3.1% (n=15) of the current measured at resting membrane potential was blocked. This inhibition was reversible as current amplitude increased after norgestimate wash out (FIG. 3 A).
(§1) Effect of 10 μM norgestimate (NG) on whole-cell currents evoked by AlF4^− infusion into induced TRPC6— (A) and TRPC5 HEK 293 (B) cells. Whole cell currents recorded at −70 mV (left panels) and the corresponding current-voltage (I-V) relationships are shown (right panels). […] The curves were obtained during voltage ramps from −100 to +80 mV. (C) Statistical analysis of the norgestimate effect on TRPC5— and TRPC6-mediated currents. 10 μM norgestimate inhibit 25.9±5.7% (n=20) of TRPC5-mediated currents and 89.9±3.1% (n=15) of TRPC6-mediated currents (P<0.001, Wilcoxon test, two-sided).

TRPC5 = target: T2, TRPC5 (Homo sapiens, UniProt Q9UL62); assay: Whole-cell patch clamp, AlF4- activated TRPC5 HEK293 cells; format: cell-based; details: 10 μM, -70 mV, n=20
T2 construct: expressed in transfected cells; host or cells: HEK293 FITR (inducible expression)
T2 sequence (Q9UL62 1-973): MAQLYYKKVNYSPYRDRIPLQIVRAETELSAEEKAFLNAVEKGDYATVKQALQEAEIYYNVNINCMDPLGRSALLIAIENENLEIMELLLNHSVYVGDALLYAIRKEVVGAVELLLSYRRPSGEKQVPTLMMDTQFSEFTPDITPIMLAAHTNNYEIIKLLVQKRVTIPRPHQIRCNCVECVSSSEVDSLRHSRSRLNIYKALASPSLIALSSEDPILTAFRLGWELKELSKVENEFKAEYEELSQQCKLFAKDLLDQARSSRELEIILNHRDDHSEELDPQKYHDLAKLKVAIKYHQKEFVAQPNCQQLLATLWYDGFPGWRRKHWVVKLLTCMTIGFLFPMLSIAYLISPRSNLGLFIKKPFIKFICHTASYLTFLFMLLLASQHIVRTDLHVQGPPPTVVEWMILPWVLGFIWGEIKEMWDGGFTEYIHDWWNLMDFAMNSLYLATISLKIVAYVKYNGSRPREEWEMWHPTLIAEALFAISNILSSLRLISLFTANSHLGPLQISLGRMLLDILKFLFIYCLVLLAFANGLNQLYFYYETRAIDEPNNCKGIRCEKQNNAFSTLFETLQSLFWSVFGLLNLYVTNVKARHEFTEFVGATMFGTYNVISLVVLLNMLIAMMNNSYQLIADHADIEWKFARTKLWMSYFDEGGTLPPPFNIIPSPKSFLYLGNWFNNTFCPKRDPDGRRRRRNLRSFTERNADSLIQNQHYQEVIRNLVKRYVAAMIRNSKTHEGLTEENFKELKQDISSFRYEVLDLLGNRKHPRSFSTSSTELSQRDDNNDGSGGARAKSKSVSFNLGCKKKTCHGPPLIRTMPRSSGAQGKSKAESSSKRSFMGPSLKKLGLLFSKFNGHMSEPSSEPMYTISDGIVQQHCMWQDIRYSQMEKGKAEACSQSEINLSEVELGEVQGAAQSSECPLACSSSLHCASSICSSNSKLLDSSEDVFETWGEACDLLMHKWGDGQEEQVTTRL
Description: Channels were indirectly excited with the same stimulus for better comparability of the norgestimate effect. Aluminium tetrafluoride (AIF^4−) applied intracellularly via the patch pipette activates G-proteins by mimicking GTP (Sternweis & Gilman, 1982; Bigay et al., 1987).
Since these channels are potentiated by micromolar La^3+ concentrations (Jung et al., 2003), 2-aminoethoxydiphenyl borate (2-APB), a characterized TRPC5 blocker (Xu et al., 2005) was used instead.
as §1, with “currents.” for “currents. 10 μM norgestimate inhibit 25.9±5.7% (n=20) of TRPC5-mediated currents and 89.9±3.1% (n=15) of TRPC6-mediated currents (P<0.001, Wilcoxon test, two-sided).”

With `C#C[C@]1(OC(C)=O)CC[C@H]2[C@@H]3CCC4=C/C(=N/O)CC[C@@H]4[C@H]3CC[C@@]21CC` [norgestimate, D-17β-acetoxy-B-ethyl-17α ethinyl-gon-4-en-3-one oxime] the “reversibility of TRPC6 current inhibition after wash out” value (TRPC6) was “reversible”, the TRPC6 current blocked (TRPC6; current at resting membrane potential (-70 mV), n=15) was 89.9 ±3.1% and the TRPC5 current blocked (TRPC5) was 25.9±5.7%.
